# Reference: US9006440B2, “Furopyridine derivatives” (Merck Patent GmbH, priority 2010, dated 2015)
# pIC50: −log10 of the molar value.
# Assays:
# Syk = target: T1, Syk (Homo sapiens, UniProt P43405); assay: Syk enzyme assay (SYK flash plate assay / Caliper mobility shift); assay type: biochemical
# T1 construct: purchased BPS Bioscience, CA, USA
# Procedure: The kinase assay is performed either as 384-well Flashplate assay (for e.g. Topcount measurement) or as 384-well Image-Flashplate assay (for LEADseeker measurement).
# 2.5 nM SYK, 400 nM Biotin-Aha-Aha-KEDPDYEWPSAKK
# and 10 μM ATP (spiked with 0.3 μCi 33P-ATP/well) are incubated in a total volume of 50 μl (60 mM Hepes, 10 mM MgCl2, 1.2 mM Dithiothreitol, 0.02% Brij35, 0.1% BSA, pH 7.5) with or without test compound for 1 hours at 30° C. The reaction is stopped with 25 μl 200 mM EDTA. After 30 Min at 30° C. the liquid is removed and each well washed thrice with 100 μl 0.9% sodium chloride solution. Non-specific reaction is determined in presence of 0.1 μM Staurosporine. Radioactivity is measured with Topcount (when using Flashplates) or with LEADseeker (when using Image-Flashplates) respectively. Results (e.g. IC50-values) are calculated with program tools provided by the IT-department (e.g. Symyx Assay Explorer, Genedata Screener). Enzymatic Assays Using the Caliper LifeSciences Technology
# (§1) The assays described here are performed on the Caliper Life Sciences LC3000 system This technology provides data on enzyme activity via measurement of the relative amounts of phosphorylated or unphosphorylated fluorescently labelled substrate peptide at the end of an enzymatic reaction. These different states of peptide are resolved by applying a potential difference across the sample. The presence of the charged phosphate group on the product (as opposed to the substrate) causes a different peptide mobility between the two peptides. This is visualized by excitation of the fluorescent label on the substrate and product peptides and represented as peaks within the analysis software.
# (§2) In order to measure inhibitor activity of kinase inhibitors on this technology, a TTP Mosquito liquid handling instrument is used to place 0.25 ul of the appropriate concentration of inhibitor in 100% DMSO (for a dose response curve calculation) into each well of a 384-well plate. To this reaction components are added to a final volume of 25 ul. The table below indicates the sequences and concentrations for the assays described in this report. Standard components are 1 mM DTT (Sigma, D0632), 1 mM MgCl2 (Sigma, M1028), 100 mM HEPES pH 7.5 (Calbiochem, 391338), 0.015% Brij-35 (Sigma, B4184).
# (§3) The reaction is incubated for 90 min at 25 C, and then stopped by the addition of 70 ul of Stop buffer (100 mM HEPES pH 7.5, 0.015% Brij-35, 10 mM EDTA (Sigma, E7889)).
# (§4) The plate is read on a Caliper LC 3000 in an Off-Chip mobility shift assay format, on a 12-sipper chip. Unphosphorylated substrate and phosphorylated product peptide resolve as separate peaks allowing direct measurement of percentage of conversion of substrate to product. The percent conversion can be plotted against concentration of inhibitor to produce a sigmoidal dose response curve, from which an IC50 can be calculated using GeneData Condoseo or a similar product.
# KDR = target: T2, KDR (Homo sapiens, UniProt P35968); assay: KDR enzymatic assay (Caliper LifeSciences technology); assay type: biochemical
# T2 construct: purchased BPS Bioscience, CA, USA
# T2 sequence (P35968 20-1356): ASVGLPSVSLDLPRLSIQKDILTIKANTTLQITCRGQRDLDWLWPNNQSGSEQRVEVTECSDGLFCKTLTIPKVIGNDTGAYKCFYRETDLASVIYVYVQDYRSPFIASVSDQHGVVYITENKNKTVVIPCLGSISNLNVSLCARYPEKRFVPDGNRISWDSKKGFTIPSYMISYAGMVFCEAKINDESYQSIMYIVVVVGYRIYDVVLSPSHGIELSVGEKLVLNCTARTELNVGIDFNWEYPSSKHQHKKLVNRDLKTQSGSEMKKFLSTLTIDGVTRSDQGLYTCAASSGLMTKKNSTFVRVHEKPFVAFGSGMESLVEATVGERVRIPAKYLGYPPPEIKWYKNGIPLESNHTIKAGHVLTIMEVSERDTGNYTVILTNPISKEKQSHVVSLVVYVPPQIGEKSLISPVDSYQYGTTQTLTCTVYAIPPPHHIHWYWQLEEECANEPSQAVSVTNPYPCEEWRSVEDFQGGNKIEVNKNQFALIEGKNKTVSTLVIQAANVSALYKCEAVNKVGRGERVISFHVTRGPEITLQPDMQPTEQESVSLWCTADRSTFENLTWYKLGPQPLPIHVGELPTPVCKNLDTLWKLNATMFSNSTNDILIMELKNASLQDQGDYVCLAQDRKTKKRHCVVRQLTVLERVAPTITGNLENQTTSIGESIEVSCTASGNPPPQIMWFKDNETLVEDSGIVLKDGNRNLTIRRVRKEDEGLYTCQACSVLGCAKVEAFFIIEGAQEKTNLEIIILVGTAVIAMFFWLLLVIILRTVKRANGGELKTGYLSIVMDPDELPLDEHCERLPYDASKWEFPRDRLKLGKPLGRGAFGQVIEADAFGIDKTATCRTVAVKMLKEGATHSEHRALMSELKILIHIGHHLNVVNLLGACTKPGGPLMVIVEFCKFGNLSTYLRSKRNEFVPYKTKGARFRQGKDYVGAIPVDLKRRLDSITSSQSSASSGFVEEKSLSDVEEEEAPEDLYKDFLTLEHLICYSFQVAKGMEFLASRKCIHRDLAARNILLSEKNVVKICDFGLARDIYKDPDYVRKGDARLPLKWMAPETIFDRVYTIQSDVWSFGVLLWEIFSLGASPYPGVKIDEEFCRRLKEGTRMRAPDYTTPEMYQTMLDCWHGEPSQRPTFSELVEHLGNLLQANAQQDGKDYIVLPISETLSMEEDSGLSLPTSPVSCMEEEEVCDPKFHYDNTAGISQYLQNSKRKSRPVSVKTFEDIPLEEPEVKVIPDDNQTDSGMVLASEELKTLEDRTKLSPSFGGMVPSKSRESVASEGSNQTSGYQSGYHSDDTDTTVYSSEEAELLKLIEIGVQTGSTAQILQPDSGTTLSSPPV
# Procedure: as §1, §2, §3, §4
Compound,pIC50 (Syk),pIC50 (KDR)
"COC(=O)c1cccc(-c2cc3nccc(-c4ccccc4)c3o2)c1 [Compound A19, 3-(7-Phenyl-furo[3,2-b]pyridin-2-yl)-benzoic acid methyl ester]",4.30 to 5.52,4.30 to 5.52
COc1cc(-c2cc3nccc(C4=CCOCC4)c3o2)cc(OC)c1OC [Compound C68],5.52 to 6.52,> 6.52
"COc1cc(-c2cc3nccc(-c4ccc(CNC(C)=O)cc4)c3o2)cc(OC)c1OC [Compound A54, N-{4-[2-(3,4,5-Trimethoxy-phenyl)-furo[3,2-b]pyridin-7-yl]-benzyl}-acetamide]",5.52 to 6.52,–
Cc1cc(-c2cc3nccc(-c4cnn(C)c4)c3o2)cc(C(C)(C)C)c1 [Compound C9],5.52 to 6.52,–
"C=C(C)c1ccc(-c2cc3nccc(Nc4ccc5[nH]ccc5c4C)c3o2)cc1 [Compound B62, [2-(4-Isopropenyl-phenyl)-furo[3,2-b]pyridin-7-yl]-(4-methyl-1H-indol-5-yl)-amine]",4.30 to 5.52,–
COc1cc(-c2cc3nccc(-c4cnc(N)cc4C)c3o2)cc(OC)c1OC [Compound C75],5.52 to 6.52,–
Cn1cc(-c2ccnc3cc(-c4ccc(N5CCOCC5)cc4)oc23)cn1 [Compound C49],5.52 to 6.52,5.52 to 6.52
"Fc1ccc(-c2cc3nccc(-c4ccc(F)cc4)c3o2)cc1 [Compound B6, 2,7-Bis-(4-fluoro-phenyl)-furo[3,2-b]pyridine]",4.30 to 5.52,–
"COC(=O)c1cccc(-c2ccnc3cc(-c4cc(OC)c(OC)c(OC)c4)oc23)c1 [Compound A11, 3-[2-(3,4,5-Trimethoxy-phenyl)-furo[3,2-b]pyridin-7-yl]-benzoic acid methyl ester]",5.52 to 6.52,–
Cc1noc(C)c1-c1cc2nccc(-c3cnn(C)c3)c2o1 [Compound C22],5.52 to 6.52,–
c1cncc(-c2ccnc3cc(-c4ccc(N5CCOCC5)nc4)oc23)c1 [Compound C39],4.30 to 5.52,–
"COc1cccc(-c2cc3nccc(-c4cccc(OC)c4OC)c3o2)c1OC [Compound B42, 2,7-Bis-(2,3-dimethoxy-phenyl)-furo[3,2-b]pyridine]",4.30 to 5.52,–
"COc1cccc(-c2cc3nccc(-c4cccc(OC)c4)c3o2)c1 [Compound B43, 2,7-Bis-(3-methoxy-phenyl)-furo[3,2-b]pyridine]",4.30 to 5.52,4.30 to 5.52
"Cc1cccc(-c2cc3nccc(-c4cccc(C)c4)c3o2)c1 [Compound B34, 2,7-Di-m-tolyl-furo[3,2-b]pyridine]",4.30 to 5.52,–
"c1cc(-c2ccc3c(c2)OCCO3)c2oc(-c3ccc4c(c3)OCCO4)cc2n1 [Compound B37, 2,7-Bis-(2,3-dihydro-benzo[1,4]dioxin-6-yl)-furo[3,2-b]pyridine]",4.30 to 5.52,–
"COc1ccc(-c2cc3nccc(-c4ccc(OC)c(OC)c4)c3o2)cc1OC [Compound B39, 2,7-Bis-(3,4-dimethoxy-phenyl)-furo[3,2-b]pyridine]",5.52 to 6.52,–
"COc1cc(-c2cc3nccc(-c4ccc(C)cc4C)c3o2)cc(OC)c1OC [Compound A32, 7-(2,4-Dimethyl-phenyl)-2-(3,4,5-trimethoxy-phenyl)-furo[3,2-b]pyridine]",5.52 to 6.52,–
"CCOc1ccn(-c2ccc(F)cc2)c(=O)c1C(=O)Nc1ccc(Oc2ccnc3cc(-c4ccccc4)oc23)cc1 [Compound B14, 4-Ethoxy-1-(4-fluoro-phenyl)-2-oxo-1,2-dihydro-pyridine-3-carboxylic acid [4-(2-phenyl-furo[3,2-b]pyridin-7-yloxy)-phenyl]-amide]",5.52 to 6.52,–

# Next, values leading:
pIC50 (Syk),pIC50 (KDR),Compound
> 6.52,4.30 to 5.52,"COc1cc(-c2cc3nccc(-c4cccc(O)c4)c3o2)cc(OC)c1OC [Compound A36, 3-[2-(3,4,5-Trimethoxy-phenyl)-furo[3,2-b]pyridin-7-yl]-phenol]"
> 6.52,5.52 to 6.52,"COc1ccc(-c2ccnc3cc(-c4cc(OC)c(OC)c(OC)c4)oc23)c(OC)c1 [Compound A28, 7-(2,4-Dimethoxy-phenyl)-2-(3,4,5-trimethoxy-phenyl)-furo[3,2-b]pyridine]"
5.52 to 6.52,> 6.52,"COc1cc(-c2cc3nccc(Nc4ccc5c(c4)NC(=O)C(F)(F)O5)c3o2)cc(OC)c1OC [Compound B10, 2,2-Difluoro-6-[2-(3,4,5-trimethoxy-phenyl)-furo[3,2-b]pyridin-7-ylamino]-4H-benzo[1,4]oxazin-3-one]"
5.52 to 6.52,5.52 to 6.52,Cn1cc(-c2ccnc3cc(-c4ccc5[nH]ccc5c4)oc23)cn1 [Compound C18]
5.52 to 6.52,5.52 to 6.52,COc1cc(-c2cc3nccc(-c4cnn(C)c4)c3o2)ccc1OCCNC(=O)OC(C)(C)C [Compound C62]
5.52 to 6.52,4.30 to 5.52,CC(C)c1cccc(-c2cc3nccc(-c4cnn(C)c4)c3o2)c1 [Compound C45]
5.52 to 6.52,4.30 to 5.52,Cn1cc(-c2ccnc3cc(-c4ccc(S(C)(=O)=O)cc4)oc23)cn1 [Compound C34]
5.52 to 6.52,5.52 to 6.52,Cn1cc(-c2ccnc3cc(-c4ccc(N5CCOCC5)nc4)oc23)cn1 [Compound C24]
> 6.52,5.52 to 6.52,"CNC(=O)c1ccc(-c2ccnc3cc(-c4cc(OC)c(OC)c(OC)c4)oc23)cc1 [Compound A13, N-Methyl-4-[2-(3,4,5-trimethoxy-phenyl)-furo[3,2-b]pyridin-7-yl]-benzamide]"
5.52 to 6.52,5.52 to 6.52,"CC(C)(O)c1ccc(-c2cc3nccc(-c4ccc(C(C)(C)O)cc4)c3o2)cc1 [Compound B45, 2-(4-{2-[4-(1-Hydroxy-1-methyl-ethyl)-phenyl]-furo[3,2-b]pyridin-7-yl}-phenyl)-propan-2-ol]"
5.52 to 6.52,5.52 to 6.52,O=C(Nc1cccc(-c2cc3nccc(-c4ccccc4)c3o2)c1)[C@@H]1CCCN1 [Compound C31]
> 6.52,4.30 to 5.52,Cn1cc(-c2ccnc3cc(-c4ccc5cc[nH]c5c4)oc23)cn1 [Compound C19]
> 6.52,5.52 to 6.52,"COc1cc(-c2ccnc3cc(-c4cc(OC)c(OC)c(OC)c4)oc23)ccn1 [Compound A29, 7-(2-Methoxy-pyridin-4-yl)-2-(3,4,5-trimethoxy-phenyl)-furo[3,2-b]pyridine]"
> 6.52,4.30 to 5.52,Cn1cc(-c2ccnc3cc(-c4ccc5cnn(C)c5c4)oc23)cn1 [Compound C98]
5.52 to 6.52,5.52 to 6.52,COc1ccc(-c2cc3nccc(-c4cnn(C)c4)c3o2)cc1 [Compound C33]
5.52 to 6.52,5.52 to 6.52,Cn1cc(-c2ccnc3cc(-c4ccc5c(c4)OCCO5)oc23)cn1 [Compound C17]
> 6.52,–,COc1cc(-c2cc3nccc(-c4ccc5[nH]c(-c6cn[nH]c6)nc5c4)c3o2)cc(OC)c1OC [Compound C90]
5.52 to 6.52,–,COc1cccc(-c2cc3nccc(-c4ccccc4)c3o2)c1 [Compound C15]
5.52 to 6.52,5.52 to 6.52,Cn1cc(-c2ccnc3cc(-c4ccc(OCC(O)CN5CCOCC5)cc4)oc23)cn1 (stereo not drawn) [Compound C37]
> 6.52,–,"CCOC(=O)Cn1cc(-c2ccnc3cc(-c4cc(OC)c(OC)c(OC)c4)oc23)cn1 [Compound A33, {4-[2-(3,4,5-Trimethoxy-phenyl)-furo[3,2-b]pyridin-7-yl]-pyrazol-1-yl}-acetic acid ethyl ester]"
> 6.52,–,"COc1cc(-c2cc3nccc(-c4cccc(C(=O)NCCN(C)C)c4)c3o2)cc(OC)c1OC [Compound A8, N-(2-Dimethylamino-ethyl)-3-[2-(3,4,5-trimethoxy-phenyl)-furo[3,2-b]pyridin-7-yl]-benzamide]"
> 6.52,–,COc1cc(-c2cc3nccc(-c4cnc(F)cc4C)c3o2)cc(OC)c1OC [Compound C23]
> 6.52,5.52 to 6.52,"COc1cc(-c2cc3nccc(-c4ccc(CN)cc4)c3o2)cc(OC)c1OC [Compound A53, 4-[2-(3,4,5-Trimethoxy-phenyl)-furo[3,2-b]pyridin-7-yl]-benzylamine]"
> 6.52,–,CNC(=O)COc1cccc(-c2ccnc3cc(-c4cc(OC)c(OC)c(OC)c4)oc23)c1 [Compound C8]
> 6.52,–,Cn1cc(-c2ccnc3cc(-c4ccc5cn[nH]c5c4)oc23)cn1 [Compound C133]
> 6.52,–,COc1cc(-c2cc3nccc(-c4cccc(C(=O)NCc5cc[nH]n5)c4)c3o2)cc(OC)c1OC [Compound C10]
